Test results from ChEMBL document CHEMBL1201862, “PubChem BioAssay data set” (2004).
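Interpolation was linear, between the two tested concentrations surrounding the appropriate level; five concentrations were tested over 48 hours in 96-well plates. GI50 is the concentration that inhibits growth by half.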 Calls of active or inactive are those of the source. No stated cut-off is given here; in the data, active = GI50 up to about 1.1 µM and inactive = higher.

Experiments:
Assay in all cases: NCI anticancer screen, dose series, 48 h
[1] = tested on: MDA-MB-435
[2] = tested on: HOP-92
[3] = tested on: UACC-62
[4] = tested on: HOP-62
[5] = tested on: NCI-H522
[6] = tested on: TK-10
[7] = tested on: HL-60
[8] = tested on: SN12C
[9] = tested on: SF-539
[10] = tested on: SF-268
[11] = tested on: MCF7
[12] = tested on: KM12
[13] = tested on: COLO 205
[14] = tested on: MDA-MB-231
[15] = tested on: SW-620
[16] = tested on: DU-145
[17] = tested on: BT-549
[18] = tested on: OVCAR-5
[19] = tested on: SK-MEL-5
[20] = tested on: KM-20L2

Measured: GI50

Oc1c2ccccc2c2c3c(cccc13)N=N2 [SP-600125]
inactive: [1] 12.8 µM | [2] 37.6 µM | [3] 14.6 µM | [4] 69.3 µM | [5] 12.2 µM | [6] 5.93 µM | [7] 42.1 µM | [8] 14.8 µM | [9] 32.2 µM | [10] 18.5 µM | [11] 49 µM | [12] 2.62 µM | [13] 19.5 µM | [14] 65.3 µM | [15] 10.9 µM | [16] 28.2 µM | [17] 30.8 µM | [18] 24.4 µM | [19] 14.6 µM

Cc1ccc2[nH]c3c4c5ccccc5nc-4c[nH]c3c2c1
inactive: [3] 16.4 µM | [20] 15.1 µM | [4] 10 µM | [5] 21.5 µM | [6] 21 µM | [7] 16.6 µM | [8] 16.3 µM | [9] 16.9 µM | [10] 17 µM | [12] 15.6 µM | [13] 17.5 µM | [15] 13.7 µM | [18] 17.1 µM

COC(=O)C1=Cc2cc(OC)c(OC)cc2[C@H](c2ccc(OC)c(OC)c2)C1C(=O)OC (stereo not given in full)
inactive: [2] 45.8 µM | [3] 98.9 µM | [20] > 100 µM | [4] > 100 µM | [6] > 100 µM | [7] > 100 µM | [8] > 100 µM | [9] 69.8 µM | [10] > 100 µM | [12] > 100 µM | [13] > 100 µM | [15] > 100 µM | [18] > 100 µM | [19] > 100 µM

CC(=O)OCC1OC(n2c(=O)[nH]c(=O)c3nn[nH]c32)C(OC(C)=O)C(OC(C)=O)C1OC(C)=O (stereo not given)
inactive: [2] > 100 µM | [3] > 100 µM | [20] > 100 µM | [4] > 100 µM | [5] > 100 µM | [6] > 100 µM | [7] > 100 µM | [8] > 100 µM | [10] > 100 µM | [13] > 100 µM | [15] > 100 µM | [18] > 100 µM | [19] > 100 µM

O=C(O)C12C3CCC(C3)C1(C(=O)O)C1CCC2C1 (stereo not given)
inactive: [2] > 100 µM | [3] > 100 µM | [20] > 100 µM | [4] > 100 µM | [5] 14.7 µM | [6] > 100 µM | [7] 39.6 µM | [8] > 100 µM | [10] > 100 µM | [12] > 100 µM | [13] 33 µM | [15] 18.4 µM | [18] > 100 µM | [19] > 100 µM

CNC(=O)NCNC(=O)NC
inactive: [2] > 100 µM | [3] > 100 µM | [20] > 100 µM | [4] > 100 µM | [6] > 100 µM | [7] > 100 µM | [9] > 100 µM | [12] > 100 µM | [13] > 100 µM | [15] > 100 µM | [18] > 100 µM | [19] > 100 µM

CCO[C@]12C[C@H](OC)[C@@]3(O)CC(C1[C@H]3OCc1ccccc1)C13C4C2[C@H](OC)C1[C@](COC)(CN4CC)[C@H](O)C[C@@H]3OC (stereo not given in full)
inactive: [3] > 100 µM | [20] > 100 µM | [4] > 100 µM | [6] > 100 µM | [7] > 100 µM | [8] > 100 µM | [9] > 100 µM | [10] > 100 µM | [13] > 100 µM | [15] > 100 µM | [18] > 100 µM | [19] > 100 µM

CC(C)(C)OC(=O)N1CCC2(CC1)C(=O)NCN2c1ccccc1
inactive: [1] > 100 µM | [2] > 100 µM | [3] > 100 µM | [4] > 100 µM | [5] > 100 µM | [6] > 100 µM | [7] 92.7 µM | [8] > 100 µM | [9] > 100 µM | [10] > 100 µM | [11] > 100 µM | [12] > 100 µM | [13] > 100 µM | [14] > 100 µM | [15] > 100 µM | [16] > 100 µM | [17] > 100 µM | [18] > 100 µM | [19] > 100 µM

CC(C)(C)c1ccc(OCC(=O)O)c(Cl)c1
inactive: [1] > 100 µM | [2] > 100 µM | [3] > 100 µM | [4] > 100 µM | [5] > 100 µM | [6] > 100 µM | [7] > 100 µM | [8] > 100 µM | [9] > 100 µM | [10] > 100 µM | [11] > 100 µM | [12] > 100 µM | [13] > 100 µM | [14] > 100 µM | [15] > 100 µM | [16] > 100 µM | [17] > 100 µM | [18] > 100 µM | [19] > 100 µM
